From patent US20080280878A1, “Methods and Compositions for Treating Chronic Lymphocytic Leukemia” (priority 2004, published 2008)
“And” between values parts separate entries of the source, which are not always exact repeats. Equal values may be shown once.

Key:
[1] = Solvent stability of low melt form: slurrying in H2O:EtOH (90:10); assay type: physicochemical; conditions: slurry in H2O:EtOH (90:10)
Description: 17-AAG may be prepared from geldanamycin by reacting with allyamine in dry THF under a nitrogen atmosphere. The crude product may be purified by slurrying in H2O:EtOH (90:10), and the washed crystals obtained have a melting point of 206-212° C. by capillary melting point technique. […] The two 17-AAG products are designated as the low melt form and high melt form.
MP=147-175° C. ^1H NMR and HPLC are consistent with the desired product.

[2] = system: ZAP70 in ZAP70+ CLL B cells; assay: ZAP70 protein expression by indirect immunofluorescence and FACS analysis; assay type: cell-based, human; conditions: ZAP70+ CLL B cells of one patient, 24 hours at 37° C.
Description: Levels of ZAP70 protein expression were measured by indirect immunofluorescence of permeabilized cells with specific anti-ZAP70 antibodies and FACS analysis.

[3] = system: ZAP70 in CLL B cells (CD3−, ZAP70+); assay: Two-color flow cytometry of ZAP70 expression in white blood cells of a ZAP70+ CLL patient: CLL B cells; assay type: cell-based, human; conditions: 300 nM, 24 hours at 37° C., untreated 85%
Description: (§1) The upper right quadrant were normal T-cells (CD3+, ZAP70+) the lower right quadrant were (CD3−, ZAP70+); the upper left quadrant is CD3+, ZAP70−; and the lower left quadrant is CD3−, ZAP70−.
(§2) (right panel). Levels of ZAP70 protein expression were measured by two color indirect immunofluorescence with specific anti-CD3 antibodies conjugated to phycoerytirin and anti-ZAP70 antibodies conjugated to Alexa-488 dye and analyzed by flow cytometry. CD3 is a specific marker of T cells. […] As shown in the untreated cells (left panel), approximately 5% of the cells were normal T-cells (CD3+, ZAP70+, upper right quadrant) and ˜85% of the cells were ZAP70+ CLL B cells (CD3−, ZAP70+, lower right quadrant). […] This is important because B-CLL patients are chronically immunosuppressed by their disease, so avoidance of effects on normal T-cell function performed by ZAP70 is clearly beneficial.
(§3) The samples were than prepared for flow cytometry analysis by a method described in Rassebti et al. supra. […] Levels of ZAP70 protein expression were measured by flow cytometry (FACSCalibur, BD Biosciences) and Flow-Jo software, version 2.7.4 (Tree Star).

[4] = system: ZAP70 in normal T-cells (CD3+, ZAP70+); assay: Two-color flow cytometry of ZAP70 expression in white blood cells of a ZAP70+ CLL patient: normal T-cells; assay type: cell-based, human; conditions: 300 nM, 24 hours at 37° C., untreated 4.5%
Description: as §1, §2, §3

[5] = cited from earlier work
ZAP70− CLL B cells = assay: Viability (100%-% apoptotic cells) by DiOC6 and propidium iodide staining; conditions: Homo sapiens, B-cell, 48 h, read-out: average % viability

C=CCNC1=C2C[C@@H](C)C[C@H](OC)[C@H](O)[C@@H](C)/C=C(\C)[C@H](OC(N)=O)[C@@H](OC)/C=C\C=C(/C)C(=O)NC(=CC1=O)C2=O [low melt form, 17-allylamino-17-demethoxygeldanamycin]
stability of the low melt form (conversion to high melt form) [1]: no conversion to the high melt form was observed

C=CCNC1=C2CC(C)CC(OC)C(O)C(C)/C=C(\C)C(OC(N)=O)C(OC)/C=C\C=C(/C)C(=O)NC(=CC1=O)C2=O (stereo not drawn) [Compound 17-AAG, 17-allylamino-17-demethoxygeldanamycin]
degradation of ZAP70 [2]: dose-dependently induced degradation of ZAP70
% positive cells (ZAP70) after treatment [3]: 34%
% positive cells (ZAP70) after treatment [4]: 4.2%
average % viability (ZAP70+ CLL B cells; 0.1 µM): 45.74+/−3.177%
time to reach 50% cell mortality (ZAP70+ CLL B cells; 100 nM, 37° C., cells of one ZAP70+ patient): approximately 48 hours
IC50 (ZAP70+ CLL B cells; read-out: 50% inhibitory concentration (IC50), cell killing, 48 hours at 37° C., cells of one ZAP70+ patient): ~80 nM
maximum tolerated dose (MTD) ([5]; daily 1-hour infusion for 5 days every three weeks): 40 mg/m^2
clearance ([5]; human, in vivo): 41.0 ± 13.5 L/h
terminal half-life ([5]; human, in vivo): 2.5 ± 0.5 h
Cmax ([5]; read-out: Plasma Cmax, human, in vivo): 1860 nM and 3170 nM
viability at 0.1 µM (ZAP70− CLL B cells): 93%
